Source: patent US10947196B2, “Beta adrenergic agonist and methods of using the same” (CURASEN THERAPEUTICS, INC., priority 2019, dated 2021)
Where two headings read alike, the source gives them in different places.

Tests used:
hERG channel = hERG channel (Homo sapiens (Human), UniProt Q12809); assay: hERG manual patch clamp; type: cell-based
Experimental: Cell lines and cell culture. HEK 293 cell line stably expressing hERG channel (Cat #K1236) was purchased from Invitrogen. The cells are cultured in 85% DMEM, 10% dialyzed FBS, 0.1 mM NEAA, 25 mM HEPES, 100 U/mL Penicillin-Streptomycin and 5 μg/mL Blasticidin and 400 μg/mL Geneticin. Cells were split using TrypLE™ Express about three times a week, and maintained between ˜40% to […] confluence. Before the assay, the cells were transferred onto the coverslips at 5×10^5 cells/per 6 cm cell culture dish and induced with doxycycline at 1 μg/mL for 48 hours.
Solution preparations. Extracellular solution (in mM): 132 NaCl, 4 KCl, 3 CaCl2, 0.5 MgCl2, 11.1 glucose, and 10 HEPES (pH adjusted to 7.35 with NaOH) Intracellular solution (in mM): 140 KCl, 2 MgCl2, 10 EGTA, 10 HEPES and 5 MgATP (pH adjusted to 7.35 with KOH). […]
Experimental procedure. […] The holding potential was set to −90 mV for 500 ms and the current was recorded at 50 kHz and filtered at 10 kHz. […]
The hERG current was elicited by depolarizing at +30 mV for 4.8 seconds and then the voltage was taken back to −50 mV for 5.2 seconds to remove the inactivation and observe the deactivating tail current. […] The current was recorded for 120 seconds to assess the current stability. […]
Data that met the above criteria for hERG current quality were further analyzed. Percent hERG current inhibition was calculated using the following equation. […]

[1] = Microsomal stability (human); type: in vitro ADME; conditions: liver microsomes 0.5 mg/mL; method gives CLint in μL/min/mg protein
Experimental: The master solution was prepared as follows.
With NADPH: 10 μL of 20 mg/mL liver microsomes and 40 μL of 10 mM NADPH were added to the incubations. The final concentrations of microsomes and NADPH were 0.5 mg/mL and 1 mM, respectively.
Without NADPH: 10 μL of 20 mg/mL liver microsomes and 40 μL of ultra-pure H2O were added to the incubations. The final concentration of microsomes was 0.5 mg/mL.
The reaction was started with the addition of 4 μL of 3, 10, 30 and 100 μM test compound solution or control compound solution at the final concentration of 0.03, 0.1, 0.3 and 1 μM and carried out at 37° C.
Aliquots of 50 μL were taken from the reaction solution at 0, 15, 30, 45 and 60 min. The reaction was stopped by the addition of 4 volumes of cold acetonitrile with IS (100 nM alprazolam, 200 nM labetalol, 200 nM caffeine and 2 μM ketoprofen). Samples were centrifuged at 3, 220 g for 40 minutes. Aliquot of 100 μL of the supernatant was mixed with 100 μL of ultra-pure H2O and then used for LC-MS/MS analysis.
Peak areas were determined from extracted ion chromatograms. The slope value, k, was determined by linear regression of the natural logarithm of the remaining percentage of the parent drug vs. incubation time curve.
The in vitro half-life (in vitro t1/2) was determined from the slope value: in vitro t1/2=−(0.693/k) […]

Chain of hERG channel (Q12809 whole entry): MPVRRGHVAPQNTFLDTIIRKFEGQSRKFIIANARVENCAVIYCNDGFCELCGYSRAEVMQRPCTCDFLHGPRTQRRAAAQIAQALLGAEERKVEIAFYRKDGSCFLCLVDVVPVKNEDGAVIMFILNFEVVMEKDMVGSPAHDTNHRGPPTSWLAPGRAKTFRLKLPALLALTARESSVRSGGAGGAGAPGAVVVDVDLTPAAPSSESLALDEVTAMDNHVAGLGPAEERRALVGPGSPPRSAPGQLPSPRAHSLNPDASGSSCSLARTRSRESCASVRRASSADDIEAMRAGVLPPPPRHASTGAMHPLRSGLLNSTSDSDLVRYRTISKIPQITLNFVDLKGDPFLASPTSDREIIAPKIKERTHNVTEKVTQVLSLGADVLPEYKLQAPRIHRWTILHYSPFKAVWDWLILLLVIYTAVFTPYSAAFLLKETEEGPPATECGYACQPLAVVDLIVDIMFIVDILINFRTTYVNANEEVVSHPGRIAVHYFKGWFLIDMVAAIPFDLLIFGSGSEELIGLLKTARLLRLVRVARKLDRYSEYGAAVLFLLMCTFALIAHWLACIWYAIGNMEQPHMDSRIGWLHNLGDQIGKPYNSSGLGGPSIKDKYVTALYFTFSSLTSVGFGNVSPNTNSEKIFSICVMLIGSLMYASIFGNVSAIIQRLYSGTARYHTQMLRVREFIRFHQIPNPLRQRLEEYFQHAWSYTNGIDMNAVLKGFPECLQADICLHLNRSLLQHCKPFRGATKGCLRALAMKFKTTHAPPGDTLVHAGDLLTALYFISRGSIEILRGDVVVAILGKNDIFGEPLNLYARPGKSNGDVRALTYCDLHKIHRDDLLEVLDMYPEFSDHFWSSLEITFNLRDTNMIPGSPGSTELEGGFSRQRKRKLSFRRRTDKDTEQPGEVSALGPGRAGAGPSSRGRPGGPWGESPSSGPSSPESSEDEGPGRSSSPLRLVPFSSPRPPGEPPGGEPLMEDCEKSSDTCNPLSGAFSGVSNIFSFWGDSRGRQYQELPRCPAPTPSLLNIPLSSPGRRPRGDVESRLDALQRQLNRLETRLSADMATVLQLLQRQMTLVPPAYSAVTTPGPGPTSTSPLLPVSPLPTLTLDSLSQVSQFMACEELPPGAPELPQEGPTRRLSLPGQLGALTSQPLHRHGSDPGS

Row | SMILES | IC50 (hERG channel) [µM] | Microsomal stability, Human [1] [µL/min/mg protein] | IC50 (hERG channel; manual patch clamp, HEK 293 cells, read-out: hERG IC50) [µM]
1 | CC(C)(C)NC[C@H](O)c1cccc(C(F)(F)F)n1 [Compound 03-3] | > 30 | 3.49 | –
2 | CC(C)(C)NC[C@H](O)c1cccc(C#N)n1 [Compound 03-5, (S)-6-(2-(tert-butylamino)-1-hydroxyethyl)picolinonitrile] | – | 2.96 | > 30
